Results on two compounds are retold here after paper PMC4076210, “Discovery of Novel AKT Inhibitors with Enhanced Anti-Tumor Effects in Combination with the MEK Inhibitor” (PLoS ONE, 2014).

Molecules are shown by their SMILES. Where two headings read alike, the source gives them in different places. Where only a bound is given, the exact number is not on record here.

One assay deals with T1, TrkA(h) (Homo sapiens, UniProt P04629).
T1 construct: purchased Millipore KinaseProfiler
As to the kind of experiment: Kinase panel. Type of assay: biochemical.

The target in a further assay is T2, FGFR2(h) (Homo sapiens, UniProt P21802).
T2 construct: purchased Millipore KinaseProfiler
T2 sequence (P21802 22-821): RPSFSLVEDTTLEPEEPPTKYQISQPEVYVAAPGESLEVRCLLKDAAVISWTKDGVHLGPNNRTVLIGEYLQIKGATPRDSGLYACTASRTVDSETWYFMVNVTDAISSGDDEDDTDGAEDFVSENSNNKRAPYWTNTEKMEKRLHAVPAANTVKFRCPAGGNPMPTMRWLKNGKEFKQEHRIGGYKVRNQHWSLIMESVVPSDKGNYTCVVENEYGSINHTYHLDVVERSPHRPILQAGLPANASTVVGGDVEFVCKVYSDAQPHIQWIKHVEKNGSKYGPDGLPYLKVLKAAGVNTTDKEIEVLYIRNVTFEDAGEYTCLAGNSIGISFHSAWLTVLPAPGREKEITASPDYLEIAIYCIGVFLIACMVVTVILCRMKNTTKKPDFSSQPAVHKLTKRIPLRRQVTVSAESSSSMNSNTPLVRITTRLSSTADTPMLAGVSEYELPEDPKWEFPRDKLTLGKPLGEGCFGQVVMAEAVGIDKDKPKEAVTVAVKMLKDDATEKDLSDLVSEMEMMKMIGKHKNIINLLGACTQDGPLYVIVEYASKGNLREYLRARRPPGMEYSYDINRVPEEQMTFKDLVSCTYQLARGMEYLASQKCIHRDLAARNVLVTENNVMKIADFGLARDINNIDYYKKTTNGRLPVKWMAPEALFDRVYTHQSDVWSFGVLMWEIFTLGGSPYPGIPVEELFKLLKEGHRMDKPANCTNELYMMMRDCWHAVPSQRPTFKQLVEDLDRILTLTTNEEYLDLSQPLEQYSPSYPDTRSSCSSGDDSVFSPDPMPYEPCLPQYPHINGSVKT
As to the kind of experiment: Kinase panel. Type of assay: biochemical.

The target in another assay is T3, PAK6(h) (Homo sapiens, UniProt Q9NQU5).
T3 construct: purchased Millipore KinaseProfiler
T3 sequence (Q9NQU5 whole entry): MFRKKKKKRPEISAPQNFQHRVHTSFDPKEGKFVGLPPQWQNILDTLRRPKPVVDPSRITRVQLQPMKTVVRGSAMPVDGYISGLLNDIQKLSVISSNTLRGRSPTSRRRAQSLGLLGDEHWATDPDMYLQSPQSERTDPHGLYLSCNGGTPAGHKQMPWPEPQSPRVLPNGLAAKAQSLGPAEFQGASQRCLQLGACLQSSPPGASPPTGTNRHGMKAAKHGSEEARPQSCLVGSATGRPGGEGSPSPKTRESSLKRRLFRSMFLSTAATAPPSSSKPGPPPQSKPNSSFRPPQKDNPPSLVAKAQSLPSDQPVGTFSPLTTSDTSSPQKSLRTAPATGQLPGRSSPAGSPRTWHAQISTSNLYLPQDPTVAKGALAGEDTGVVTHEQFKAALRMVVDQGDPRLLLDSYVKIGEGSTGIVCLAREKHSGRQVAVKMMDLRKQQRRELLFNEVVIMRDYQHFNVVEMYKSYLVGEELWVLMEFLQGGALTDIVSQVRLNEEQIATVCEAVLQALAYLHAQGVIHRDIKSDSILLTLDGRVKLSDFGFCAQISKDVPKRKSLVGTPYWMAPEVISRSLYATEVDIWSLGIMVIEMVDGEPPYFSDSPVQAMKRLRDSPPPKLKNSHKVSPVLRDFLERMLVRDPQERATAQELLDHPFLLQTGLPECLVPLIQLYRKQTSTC
Kind of assay: Kinase panel. Type of assay: biochemical.

A further assay has as its target PKCα (Homo sapiens, UniProt P17252). Kind of assay: Kinase IC50 assay. Type of assay: biochemical.
A further assay addresses T4, PRAK(h) (Homo sapiens, UniProt Q8IW41).
T4 construct: purchased Millipore KinaseProfiler
T4 sequence (Q8IW41 1-473): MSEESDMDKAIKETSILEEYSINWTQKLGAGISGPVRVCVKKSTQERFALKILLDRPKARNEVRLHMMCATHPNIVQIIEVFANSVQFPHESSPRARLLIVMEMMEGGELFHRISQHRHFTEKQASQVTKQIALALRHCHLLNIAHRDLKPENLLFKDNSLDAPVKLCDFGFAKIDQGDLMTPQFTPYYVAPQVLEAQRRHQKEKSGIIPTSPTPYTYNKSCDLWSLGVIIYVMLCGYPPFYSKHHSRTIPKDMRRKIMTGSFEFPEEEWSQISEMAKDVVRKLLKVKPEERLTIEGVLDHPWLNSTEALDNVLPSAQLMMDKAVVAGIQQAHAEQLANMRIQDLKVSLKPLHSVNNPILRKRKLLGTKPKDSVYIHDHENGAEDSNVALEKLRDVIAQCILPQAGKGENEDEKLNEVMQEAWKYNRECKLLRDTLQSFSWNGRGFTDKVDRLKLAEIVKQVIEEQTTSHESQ
As to the kind of experiment: Kinase panel. In kind it is biochemical.

In a further assay the target is PKCμ (Homo sapiens, UniProt Q15139). Kind of assay: Kinase IC50 assay. In kind it is biochemical.
A further assay deals with T5, SGK3(h) (Homo sapiens, UniProt Q96BR1).
T5 sequence (Q96BR1 1-496): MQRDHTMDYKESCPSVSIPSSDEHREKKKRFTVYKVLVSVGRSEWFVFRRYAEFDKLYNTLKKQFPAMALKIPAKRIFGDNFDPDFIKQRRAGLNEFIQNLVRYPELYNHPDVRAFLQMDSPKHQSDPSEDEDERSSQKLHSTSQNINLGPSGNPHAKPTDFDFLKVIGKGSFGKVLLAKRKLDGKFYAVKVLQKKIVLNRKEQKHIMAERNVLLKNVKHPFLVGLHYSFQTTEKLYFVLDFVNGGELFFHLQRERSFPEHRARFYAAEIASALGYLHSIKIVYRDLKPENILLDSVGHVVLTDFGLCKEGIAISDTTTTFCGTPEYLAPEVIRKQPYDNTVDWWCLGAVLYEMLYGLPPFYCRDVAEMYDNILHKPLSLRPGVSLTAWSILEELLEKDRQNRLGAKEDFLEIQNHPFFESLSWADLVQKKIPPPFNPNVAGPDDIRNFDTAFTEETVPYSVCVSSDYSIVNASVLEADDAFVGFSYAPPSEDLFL
Kind of assay: Kinase panel.

A further assay addresses T6, WNK3(h) (Homo sapiens, UniProt Q9BYP7).
T6 construct: purchased Millipore KinaseProfiler
Kind of assay: Kinase panel. Type of assay: biochemical.

For another assay, the target named is T7, Tie2(R849W)(h) (Homo sapiens, UniProt Q02763, R849W).
T7 construct: purchased Millipore KinaseProfiler
Kind of assay: Kinase panel. Type of assay: biochemical.

Assay [1] concerns AKT substrate phosphorylation in LNCaP. Kind of assay: Western analysis of AKT signaling. Conditions: 1 h. Type of assay: cell-based, human. The procedure: (§1) Cells treated with DMSO or compounds for different duration were lysed using RIPA buffer (Teknova) containing protease and phosphatase inhibitors (Sigma Aldrich). Equal amounts of protein were resolved in 4–12% SDS-PAGE gels (Invitrogen), transferred onto 0.45 µm PVDF membrane (Invitrogen), and incubated with primary antibodies (1∶1000 dilution) overnight. Antibodies for AKT, phospho-AKT (Ser473 and Thr308), phospho-FOXO (Thr24/32), phospho-MEK1/2 (Ser217/221) were purchased from Cell Signaling Technologies. Phospho-GSK3β (Ser9) antibody was from R&D Systems. PRAS40 and phospho-PRAS40 (Thr246) antibodies were obtained from Millipore. Phospho-ERK1/2 (Tyr204), ERK1/2, and phospho-Caspase 9 (Ser196) antibodies were purchased from Santa Cruz Biotechnologies. Tubulin antibodies were purchased from Sigma Aldrich. Following incubation with primary antibody, blots were washed and incubated with IRDye-680 goat-anti-mouse or IRDye-800CW goat-anti-rabbit antibodies (1; 10,000 dilution; LI-COR) for 1 h. Following thorough washing, blots were analyzed using an infrared imaging system (LI-COR).

Assay [2] concerns AKT substrate phosphorylation in BT474. As to the kind of experiment: Western analysis of AKT signaling. In kind it is cell-based, human. Conditions: BT474, 1 h. The method, then: as §1
Another assay concerns the target T8, Lck(h) (Homo sapiens, UniProt P06239).
T8 construct: purchased Millipore KinaseProfiler
Kind of assay: Kinase panel. In kind it is biochemical.

For the next assay, the target named is T9, PKCδ(h) (Homo sapiens, UniProt Q05655).
T9 construct: purchased Millipore KinaseProfiler
Kind of assay: Kinase panel. Type of assay: biochemical.

T8 sequence (P06239 whole entry): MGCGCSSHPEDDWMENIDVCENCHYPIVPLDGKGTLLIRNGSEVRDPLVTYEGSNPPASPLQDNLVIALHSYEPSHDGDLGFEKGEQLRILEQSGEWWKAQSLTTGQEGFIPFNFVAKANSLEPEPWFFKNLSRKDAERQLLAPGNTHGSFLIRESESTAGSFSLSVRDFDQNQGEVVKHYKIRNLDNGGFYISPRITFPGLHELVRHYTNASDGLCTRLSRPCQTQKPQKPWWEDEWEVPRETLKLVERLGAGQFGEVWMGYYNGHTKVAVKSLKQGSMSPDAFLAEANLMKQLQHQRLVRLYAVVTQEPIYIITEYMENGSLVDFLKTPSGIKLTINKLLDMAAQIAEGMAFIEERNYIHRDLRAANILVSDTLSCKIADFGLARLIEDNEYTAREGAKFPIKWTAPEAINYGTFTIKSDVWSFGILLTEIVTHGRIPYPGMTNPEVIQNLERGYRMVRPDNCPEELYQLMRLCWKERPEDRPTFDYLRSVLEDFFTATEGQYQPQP
T1 sequence (P04629 33-796): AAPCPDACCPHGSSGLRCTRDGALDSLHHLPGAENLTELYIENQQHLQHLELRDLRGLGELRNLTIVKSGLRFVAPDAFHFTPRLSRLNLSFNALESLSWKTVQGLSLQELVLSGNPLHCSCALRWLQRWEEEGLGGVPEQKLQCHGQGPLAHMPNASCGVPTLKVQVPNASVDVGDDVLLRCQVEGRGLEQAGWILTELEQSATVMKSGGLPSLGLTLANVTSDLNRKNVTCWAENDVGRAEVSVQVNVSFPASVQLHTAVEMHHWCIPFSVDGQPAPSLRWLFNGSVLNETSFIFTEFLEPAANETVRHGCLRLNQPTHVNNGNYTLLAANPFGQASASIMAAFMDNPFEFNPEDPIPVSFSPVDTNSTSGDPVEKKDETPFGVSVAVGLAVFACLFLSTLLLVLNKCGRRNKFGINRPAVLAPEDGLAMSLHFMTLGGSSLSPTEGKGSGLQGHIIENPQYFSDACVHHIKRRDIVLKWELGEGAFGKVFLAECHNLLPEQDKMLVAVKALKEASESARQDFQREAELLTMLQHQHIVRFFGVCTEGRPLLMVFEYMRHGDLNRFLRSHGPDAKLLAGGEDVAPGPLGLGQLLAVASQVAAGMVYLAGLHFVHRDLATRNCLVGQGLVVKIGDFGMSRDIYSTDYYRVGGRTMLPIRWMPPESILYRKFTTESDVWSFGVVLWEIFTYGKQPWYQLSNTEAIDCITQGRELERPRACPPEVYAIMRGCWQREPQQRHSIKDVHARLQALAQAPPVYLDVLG
T6 sequence (Q9BYP7 whole entry): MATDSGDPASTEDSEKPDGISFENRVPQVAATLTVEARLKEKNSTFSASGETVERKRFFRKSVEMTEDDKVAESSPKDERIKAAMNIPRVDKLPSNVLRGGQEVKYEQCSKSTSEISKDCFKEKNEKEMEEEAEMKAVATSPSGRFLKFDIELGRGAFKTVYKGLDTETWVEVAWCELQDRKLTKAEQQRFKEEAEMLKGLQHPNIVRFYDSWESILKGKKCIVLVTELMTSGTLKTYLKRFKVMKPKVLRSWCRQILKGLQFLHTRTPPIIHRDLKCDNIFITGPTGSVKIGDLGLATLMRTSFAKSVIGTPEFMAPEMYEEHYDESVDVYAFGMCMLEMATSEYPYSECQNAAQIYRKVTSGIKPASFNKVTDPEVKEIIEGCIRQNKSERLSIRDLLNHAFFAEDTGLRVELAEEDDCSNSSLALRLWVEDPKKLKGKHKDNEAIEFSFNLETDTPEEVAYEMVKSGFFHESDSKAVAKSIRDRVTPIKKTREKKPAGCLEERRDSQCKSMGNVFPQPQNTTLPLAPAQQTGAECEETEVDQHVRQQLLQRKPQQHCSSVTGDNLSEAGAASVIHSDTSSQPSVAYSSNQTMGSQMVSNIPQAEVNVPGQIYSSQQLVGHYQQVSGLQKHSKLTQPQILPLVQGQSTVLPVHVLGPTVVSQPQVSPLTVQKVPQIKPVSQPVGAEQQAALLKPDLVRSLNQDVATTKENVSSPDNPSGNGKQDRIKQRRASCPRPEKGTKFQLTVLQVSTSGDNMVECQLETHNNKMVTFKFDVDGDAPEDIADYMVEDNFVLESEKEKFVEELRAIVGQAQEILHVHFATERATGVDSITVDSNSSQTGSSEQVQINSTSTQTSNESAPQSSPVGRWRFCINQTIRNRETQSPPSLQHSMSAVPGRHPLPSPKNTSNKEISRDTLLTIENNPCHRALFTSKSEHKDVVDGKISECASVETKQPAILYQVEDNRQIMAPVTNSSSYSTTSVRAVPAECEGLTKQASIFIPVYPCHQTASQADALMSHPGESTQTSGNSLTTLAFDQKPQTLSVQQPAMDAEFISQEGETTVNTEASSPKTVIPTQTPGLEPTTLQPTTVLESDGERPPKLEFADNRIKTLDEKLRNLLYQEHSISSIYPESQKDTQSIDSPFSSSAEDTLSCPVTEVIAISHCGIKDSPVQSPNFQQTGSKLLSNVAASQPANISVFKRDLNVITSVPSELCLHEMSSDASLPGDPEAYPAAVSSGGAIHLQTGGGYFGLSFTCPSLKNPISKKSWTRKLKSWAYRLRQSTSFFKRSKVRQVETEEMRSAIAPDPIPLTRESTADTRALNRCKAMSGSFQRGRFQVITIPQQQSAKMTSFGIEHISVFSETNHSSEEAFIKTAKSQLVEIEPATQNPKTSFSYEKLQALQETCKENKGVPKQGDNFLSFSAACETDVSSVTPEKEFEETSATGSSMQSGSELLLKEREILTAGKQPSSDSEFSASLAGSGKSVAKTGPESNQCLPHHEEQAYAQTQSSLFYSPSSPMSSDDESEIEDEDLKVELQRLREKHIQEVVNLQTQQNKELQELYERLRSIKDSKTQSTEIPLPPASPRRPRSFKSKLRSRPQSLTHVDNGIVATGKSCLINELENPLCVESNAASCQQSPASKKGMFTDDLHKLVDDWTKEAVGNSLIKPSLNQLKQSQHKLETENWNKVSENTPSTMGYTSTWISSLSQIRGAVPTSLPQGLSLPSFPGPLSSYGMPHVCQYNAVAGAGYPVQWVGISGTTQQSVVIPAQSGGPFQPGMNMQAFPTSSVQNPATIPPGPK

Broadly, the inhibition is the drop in the measured response relative to a control, in per cent. A word on the IC50: it is the concentration that gives 50% inhibition. A low value points to greater potency in that assay. For `Cn1ncc(Cl)c1-c1cc(C(=O)N[C@H](CN)Cc2cccc(F)c2)sc1Cl` [GSK2110183], the inhibition at 0.5 µM on TrkA(h) is 9%; against FGFR2(h) it was 0%; on PAK6(h) it was 13%; against PRAK(h), -35%; on SGK3(h) it was 7%; against WNK3(h), 0%. For the same compound, the values for the inhibition at 0.5 µM on Tie2(R849W)(h), at Lck(h) and against PKCδ(h) were -8%, 7% and 48%, respectively. Besides, the inhibition at 10 µM was 69% at TrkA(h); -2% against FGFR2(h); 73% against PAK6(h); -57% against PRAK(h); 76% at SGK3(h); 16% on WNK3(h). Besides, the values for the inhibition at 10 µM on Tie2(R849W)(h), on Lck(h) and against PKCδ(h) were -9%, 35% and 92%, respectively. Besides, the IC50 against PKCα and on PKCμ was above 1000 nM throughout. Further, the “AKT substrate phosphorylation levels (GSK3β, PRAS40, FOXO, Caspase 9)” value in [1] and in assay [2] was “concentration-dependent effect” each time.

As for `Cn1ncc(Cl)c1-c1cc(C(=O)N[C@H](CN)Cc2ccc(F)c(F)c2)oc1Cl` [GSK2141795], the inhibition at 0.5 µM at TrkA(h) (0.5 µM, read-out: % Inhibition) was -13%; on FGFR2(h) (0.5 µM, read-out: % Inhibition), -8%; at PAK6(h) (0.5 µM, read-out: % Inhibition), 11%; at PRAK(h) (0.5 µM, read-out: % Inhibition), 2%; at SGK3(h), 18%; at WNK3(h) (0.5 µM, read-out: % Inhibition), -2%. The inhibition at 0.5 µM is -8% on Tie2(R849W)(h) (0.5 µM, read-out: % Inhibition); -18% on Lck(h) (0.5 µM, read-out: % Inhibition); 67% at PKCδ(h) (0.5 µM, read-out: % Inhibition). In addition, the inhibition at 10 µM at TrkA(h) (10 µM, read-out: % Inhibition) is 63%; at FGFR2(h) (10 µM, read-out: % Inhibition), 2%; at PAK6(h) (10 µM, read-out: % Inhibition), 64%; at PRAK(h) (10 µM, read-out: % Inhibition), -17%; at SGK3(h), 84%; at WNK3(h) (10 µM, read-out: % Inhibition), 1%. In addition, the inhibition at 10 µM at Tie2(R849W)(h) (10 µM, read-out: % Inhibition) amounted to 11%; at Lck(h) (10 µM, read-out: % Inhibition) it was 21%; on PKCδ(h) (10 µM, read-out: % Inhibition), 85%. Also, the IC50 on PKCα was above 1000 nM; on PKCμ, 690 nM. The “AKT substrate phosphorylation levels (GSK3β, PRAS40, FOXO, Caspase 9)” value in [1] and in assay [2] was “concentration-dependent effect” in each case.
